Key:
[1] = tested on: HepG2/SB3 and HepG2/CTR cells; test: Cell viability by MTT assay with antitumor drugs in the absence or presence of PPA; assay type: cell-based; details: for Resistance/sensitivity to drug-induced cell death, HepG2/SB3 compared with HepG2/CTR: drug 10 μM, without PPA
Experimental: The SeprinB3 molecule is known to induce resistance to chemotherapy treatment. In order to evaluate whether the inhibition of said molecule is able to increase the therapeutic efficacy of antitumor drugs, HepG2 cells stably transfected to overexpress SerpinB3 (HepG2/SB3) and HepG2 cells transfected with only the empty plasmid (HepG2/CTR) have been incubated with several antitumor drugs at a concentration of 10 μM (Cisplatin, Sorafenib, 5-Fluorouracil, Methotrexate) in the absence or presence of PPA. […] The results are expressed as a percentage of viability compared to cells incubated with only medium (CTR).

MDR1 and MDR2 genes = test: Multidrug resistance gene expression by real time PCR; assay type: cell-based; details: HepG2/SB3 cells, PPA 10 and 100 ng/ml, 24 hours
Experimental: In order to understand more fully whether the resistance to chemotherapeutic drugs induced by SerpinB3 is exclusively linked to the increased resistance to cell death following the reduced activation of the mitochondrial proapoptotic cascade, the genes involved in multiple resistance to chemotherapeutic drugs have been analysed (multidrug resistance, MDR). In particular, HepG2/SB3 and HepG2 control cells (HepG2/empty) were collected after 24 hours of treatment with PPA at the doses of 10 ng/ml and 100 ng/ml and the gene expression was analysed as follows: MDR 1, MDR 2, MRP1, MRP2, MRP3, GSTP1 by real time PCR according to standard protocols.

SerpinB3 = SerpinB3 mRNA expression by real-time PCR (induced by exogenous SerpinB3 in THP-1 and HT29; constitutive in OE33 and HepG2/SB3); assay type: cell-based
Experimental: PPA was added in culture at a concentration of 1-100 ng/ml alone or in combination with recombinant SerpinB3 (SB3) at a concentration of 20-200 ng/ml to the cells, while only culture medium was added to the control wells. After 24 hours of treatment, the cells were collected by scraper and the extraction of total cell RNA and reverse transcription were performed according to standard protocols. SerpinB3 mRNA levels were measured by real-time PCR (sense: 5′-[…]-3′ (SEQ ID NO:1); reverse 5′-[…]-3′ (SEQ ID NO:2)).
They were seeded in 6-well plates and kept for 24 hours before treatment, each in its own complete culture medium in (Sigma-Aldrich, Milan, Italy). PPA (1′-piperidin propionic acid) was then added at a concentration of 10-100 ng/ml in PBS.
It should be noted that concentrations of 1-10 ng/ml are already able to reduce the synthesis of SerpinB3 by about 50%.

[2] = tested on: HepG2 liver tumor derived cells (HB8065); test: Real-time cell proliferation / cellular toxicity (xCELLigence, Normalized Cell Index); assay type: cell-based; details: monitored for over 60 hours
Experimental: HepG2 liver tumor derived cells (HB8065), incubated with increasing concentrations of 1′-Piperidin propionic acid (PPA) in a range of 5 -50 μg/ml were used and real-time cell proliferation was analysed, using xCELLigence instrument (ACEA Biosciences, Inc., San Diego, Calif., USA), according to the supplier's instructions. In each well of an E-16 plate, 4×10^4 HepG2 cells (HB8065) were seeded in quadruplicate, cultured in complete MEM medium (Sigma-Aldrich, Milan, Italy) supplemented with 10% fetal calf serum (Sigma-Aldrich, Milan, Italy), 100 U/mL of penicillin, 100 μg/ml of streptomycin, and 20 mM L-glutamine (Sigma-Aldrich, Milan, Italy) and 1% of MEM Non Essential Amino Acids. The cells were kept in an incubator at 37° C. with 95% humidity and 5% CO2 saturation. The complete medium was used as a control. The RTCA system monitored the electrical impedance, which is directly proportional to the number of cells present per well, indicated as Cell Index every 5 min for over 60 hours. The cell proliferation curves were analysed with the RTCA software and expressed as the Normalized Cell Index at the time of the treatment with PPA, an arbitrary unit corresponding to the number of cells present per well.
It should be noted that said concentration (5 μg/ml) is markedly higher than the biologically active PPA concentrations, whose normal range of use was 10-100 ng/ml.

CCL15 and PD-L1 = test: Expression of SerpinB3-induced cytokines in THP-1 cells; assay type: cell-based; details: PPA 1 ng/ml
Description: It has been documented that SerpinB3, in addition to inducing resistance to cell death and increased proliferation, is able to induce a reduction in tumor immunosurveillance, in particular through the increased production of cytokines such as CCL15, recently involved in the reduction of immune surveillance in hepatocellular carcinoma, and the immune checkpoint molecule PD-L1, towards which several new antitumor drugs are directed.

[3] = tested on: tumor development in the liver; test: DEN plus CDAA diet mouse model of obesity-associated carcinogenesis; assay type: in vivo
Description: To better assess the role of SerpinB3 in carcinogenesis, a mouse model of obesity-associated carcinogenesis that requires a single administration of diethyl-nitrosamine (DEN) has been developed in mice with different expression of SerpinB3. The study has been performed in mice transgenic for human SerpinB3 (SerpinB3/TG) (the initial colony was kindly provided by Prof. Cassani, Tecnogen, Caserta, Italy) and in SerpinB3 knockout mice (SerpinB3/KO) (the initial colony was kindly provided by Dr. Gary Silverman and Dr. Cliff J. Luke, University of Pittsburg, Children's Hospital, Pittsburg, Pa.). Moreover wild type mice of similar age were used as controls. All animals were bred and maintained with free access to pellet food and water at the Animal Care Facility of the Experimental Surgery Division of the University of Padua.
Mice were injected with (DEN, 25 mg/kg i.p.) at the age of 2 weeks. These mice were fed at the age of 6 weeks with a choline-deficient L-amino acid-defined (CDAA) diet and part of them were sacrificed after […], while the remaining mice were sacrificed after […]. Two groups of control mice were also treated or not with PPA (weekely intraperitoneal injection of 50 ng/g of body weight) during CDAA diet. The experimental protocol was approved by the local Ethical Committee and by the Italian Ministry of Health (Authorization N. 442/2018-PR).

[4] = tested on: THP-1 cells of monocytic origin; test: Real-time proliferation of THP-1 cells stimulated with exogenous SerpinB3 (xCELLigence); assay type: cell-based; details: THP-1 cells with exogenous SerpinB3 20 ng/ml, PPA 1 ng/ml, 10 ng/ml, 10 μg/ml, up to 120 hours
Experimental: To evaluate cell proliferation in real time, the xCELLigence instrument (ACEA Biosciences, Inc., San Diego, Calif., USA) was used, as described in Example 1. THP-1 cells of monocytic origin were used, whose incubation with exogenous recombinant SerpinB3 (20 ng/ml) had induced a marked increase in the synthesis of endogenous SerpinB3, as reported in Example 2. A suspension of […] cells in quadruplicate was seeded in each well of an E-16 plate, cultured in complete RPMI medium (Sigma-Aldrich, Milan, Italy). The cells incubated with SerpinB3 alone or in the presence of PPA (1 ng/ml-10ng/ml-10 μg/ml) were monitored for up to 120 hours by the xCELLigence instrument and the cell proliferation curves shown in FIG. 3 were processed and expressed by the RTCA software as the Normalized Cell Index.

## CN(Cc1cnc2nc(N)nc(N)c2n1)c1ccc(C(=O)N[C@@H](CCC(=O)O)C(=O)O)cc1 [Methotrexate, reference compound]
[1]
  Resistance/sensitivity to drug-induced cell death, HepG2/SB3 compared with HepG2/CTR: not different

## O=c1[nH]cc(F)c(=O)[nH]1 [5-Fluorouracil, reference compound]
[1]
  Resistance/sensitivity to drug-induced cell death, HepG2/SB3 compared with HepG2/CTR: not different

## O=C(O)CCN1CCCCC1 [PPA, 3-(1-piperidinyl)propanoic acid]
MDR1 and MDR2 genes
  MDR1 gene expression: reduction of their expression in a dose-dependent manner
  MRD2 gene expression: reduction of their expression in a dose-dependent manner
SerpinB3; OE33 and HepG2/SB3 cells, PPA 10-100 ng/ml
  Constitutive SerpinB3 expression: reduces in a dose-dependent manner
SerpinB3; PPA concentrations of 1-10 ng/ml
  Reduction of the synthesis of SerpinB3: about 50%
SerpinB3; THP-1 and HT29 cells, PPA 1-100 ng/ml with recombinant SerpinB3 20-200 ng/ml, 24 hours
  SerpinB3 expression induced by exogenous treatment: reduces in a dose-dependent manner
[2]; PPA 5-50 μg/ml
  PPA concentration up to which no cellular toxicity is observed: up to 5 μg/ml
[2]
  PPA doses at which cellular toxicity is highlighted (curves below the control curve): 25 to 50 µg/mL
CCL15 and PD-L1
  CCL15 level after stimulation with exogenous SerpinB3: markedly reduced
  PD-L1 level after stimulation with exogenous SerpinB3: markedly reduced
[3]; control (wild type) mice, DEN 25 mg/kg i.p. then CDAA diet, PPA weekly i.p. 50 ng/g body weight, preliminary results
  Tumor formation compared with mice that did not receive the compound: remarkable reduction of tumor formation
[3]; experimental model
  Tolerability in the experimental model: well tolerated
[1]; HepG2/SB3, 5-Fluorouracil 10 μM
  Viability of cells with high levels of SerpinB3 treated with 5-Fluorouracil, on addition of PPA: significant reduction of viability
[1]; HepG2/SB3, Cisplatin 10 μM
  Viability of cells with high levels of SerpinB3 treated with Cisplatin, on addition of PPA: significant reduction of viability
[1]; HepG2/SB3, Methotrexate 10 μM
  Viability of cells with high levels of SerpinB3 treated with Methotrexate, on addition of PPA: did not change
[1]; HepG2/SB3, Sorafenib 10 μM
  Viability of cells with high levels of SerpinB3 treated with Sorafenib, on addition of PPA: significant reduction of viability
[4]
  Proliferative activity (Normalized Cell Index): reduction of the proliferative activity which has proved to be dose-dependent

## CNC(=O)c1cc(Oc2ccc(NC(=O)Nc3ccc(Cl)c(C(F)(F)F)c3)cc2)ccn1 [Sorafenib, reference compound]
[1]
  Resistance/sensitivity to drug-induced cell death, HepG2/SB3 compared with HepG2/CTR: greater resistance to cell death

## N.N.[Cl][Pt][Cl] [Cisplatin, reference compound]
[1]
  Resistance/sensitivity to drug-induced cell death, HepG2/SB3 compared with HepG2/CTR: greater resistance to cell death
